Active and inactive are the calls of the source. No cut-off for these calls is given here.
Experiments:
[1] = Biodistribution in BALB/c mouse prostate gland xenografted with human 22Rv1 cells at 2.5 mg/kg, iv measured at 0.5 to 1 hrs; assay type: ADME, organism-based, CWR22R; conditions: in vivo, time 0.5-1 hrs
CWR22R [2] = test: Cytotoxicity against human 22Rv1 cells assessed as inhibition of cell growth incubated for 5 days in presence of AR agonist, R1881 by WST-1 assay; assay type: functional, cell-based; conditions: 22Rv1, 120 h
LNCaP [3] = test: Induction of apoptosis in human LNCaP cells assessed as increase in PARP level at 1 uM measured after 48 hrs by Western blot analysis; assay type: functional, cell-based
[4] = Biodistribution in BALB/c mouse tumor xenografted with human 22Rv1 cells at 2.5 mg/kg, iv measured at 12 hrs; assay type: ADME, organism-based, Neoplasm, CWR22R; conditions: in vivo
[5] = Biodistribution in BALB/c mouse spleen xenografted with human 22Rv1 cells at 2.5 mg/kg, iv measured at 0.5 to 1 hrs; assay type: ADME, organism-based, CWR22R; conditions: in vivo, time 0.5-1 hrs
[6] = Toxicity in ICR mouse assessed as testis damage at 30 to 50 mg/kg, iv administered every second day for 14 days; assay type: organism-based; conditions: in vivo, 336 h, dose 30-50 mg/kg, time 14 day
LNCaP [7] = test: Downregulation of AR-regulated FKBP5 protein level in human LNCaP cells measured for 48 hrs in presence of AR agonist, R1881 in charcoal stripped serum by Western blot analysis; assay type: functional, cell-based; conditions: dose 300-1000 nM
[8] = tested on: Androgen receptor (Homo sapiens), P10275 [UNDEFINED MUTATION]; test: Induction of AR-V7 degradation in human 22Rv1 cells at 100 nM by Western blot analysis; assay type: cell-based; conditions: time <= 48.0 hrs, TDE = time-dependent effect
[9] = biological target: T1, Androgen receptor (Homo sapiens) (UniProt P10275); test: Induction of full length AR degradation in human LNCaP cells assessed as maximum degradation at 100 nM measured after 12 hrs relative to control; assay type: cell-based
T1 sequence (whole entry): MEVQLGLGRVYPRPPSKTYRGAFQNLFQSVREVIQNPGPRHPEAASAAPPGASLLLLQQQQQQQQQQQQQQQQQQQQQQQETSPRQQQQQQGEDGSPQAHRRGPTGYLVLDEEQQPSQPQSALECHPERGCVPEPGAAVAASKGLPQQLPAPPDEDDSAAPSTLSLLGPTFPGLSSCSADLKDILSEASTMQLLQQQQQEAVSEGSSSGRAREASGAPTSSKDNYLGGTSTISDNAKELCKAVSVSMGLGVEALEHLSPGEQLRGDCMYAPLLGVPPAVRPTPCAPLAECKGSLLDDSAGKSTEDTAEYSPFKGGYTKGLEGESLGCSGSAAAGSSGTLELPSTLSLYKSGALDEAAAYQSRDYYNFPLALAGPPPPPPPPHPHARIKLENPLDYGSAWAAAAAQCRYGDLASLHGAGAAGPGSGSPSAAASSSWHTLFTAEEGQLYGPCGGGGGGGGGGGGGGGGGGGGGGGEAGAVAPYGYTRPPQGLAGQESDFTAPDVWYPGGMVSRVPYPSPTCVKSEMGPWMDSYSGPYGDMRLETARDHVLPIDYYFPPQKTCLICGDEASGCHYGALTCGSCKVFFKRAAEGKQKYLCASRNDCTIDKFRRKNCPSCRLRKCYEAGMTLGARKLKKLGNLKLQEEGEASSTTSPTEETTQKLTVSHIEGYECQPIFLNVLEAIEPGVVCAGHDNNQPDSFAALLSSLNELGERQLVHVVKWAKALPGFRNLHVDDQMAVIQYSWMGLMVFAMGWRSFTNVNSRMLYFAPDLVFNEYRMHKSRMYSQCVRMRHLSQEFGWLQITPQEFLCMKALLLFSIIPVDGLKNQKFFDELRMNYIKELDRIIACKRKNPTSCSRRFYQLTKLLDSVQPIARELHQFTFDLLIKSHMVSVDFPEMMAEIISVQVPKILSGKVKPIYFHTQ

LNCaP [10] = test: Cytotoxicity against AR-positive human LNCaP cells assessed as inhibition of cell growth incubated for 5 days in presence of AR agonist, R1881 in charcoal stripped serum by WST-1 assay; assay type: functional, cell-based; conditions: 120 h
CWR22R [11] = test: Antitumor activity against human 22Rv1 cells xenografted in BALB/c nude mouse assessed as reduction in tumor growth at 5 mg/kg, ip administered once every 4th day for 3 weeks; assay type: functional, organism-based
[12] = Toxicity in BALB/c nude mouse xenografted with human LNCaP cells assessed as animal weight loss at 5 mg/kg, ip administered once every 4th day for 3 weeks; assay type: organism-based; conditions: in vivo, 504 h
[13] = Biodistribution in BALB/c mouse heart xenografted with human 22Rv1 cells at 2.5 mg/kg, iv measured at 0.5 to 1 hrs; assay type: ADME, organism-based, CWR22R; conditions: in vivo, time 0.5-1 hrs
[14] = Toxicity in ICR mouse assessed as kidney damage at 30 to 50 mg/kg, iv administered every second day for 14 days; assay type: organism-based; conditions: in vivo, 336 h, dose 30-50 mg/kg, time 14 day
LNCaP [15] = test: Antitumor activity against human LNCaP cells xenografted in BALB/c nude mouse assessed as inhibition of tumor growth at 2.5 to 5 mg/kg, po administered once every 4th day for 3 weeks; assay type: functional, organism-based; conditions: dose 2.5-5 mg/kg
[16] = Biodistribution in BALB/c mouse testis xenografted with human 22Rv1 cells at 2.5 mg/kg, iv measured at 0.5 to 1 hrs; assay type: ADME, organism-based, CWR22R; conditions: in vivo, time 0.5-1 hrs
CWR22R [17] = test: Antitumor activity against human 22Rv1 cells xenografted in BALB/c nude mouse assessed as downregulation of AR-V7 level at 2.5 mg/kg, ip administered once every 4th day for 3 weeks; assay type: functional, organism-based
[18] = Toxicity in ICR mouse assessed as lung damage at 30 to 50 mg/kg, iv administered every second day for 14 days; assay type: organism-based; conditions: in vivo, 336 h, dose 30-50 mg/kg, time 14 day
LNCaP [19] = test: Antitumor activity against human LNCaP cells xenografted in BALB/c nude mouse assessed as downregulation of FKBP5 level at 5 mg/kg, ip administered once every 4th day for 3 weeks and measured at 2 hrs post dose; assay type: functional, organism-based
CWR22R [20] = test: Antitumor activity against human 22Rv1 cells xenografted in BALB/c nude mouse assessed as tumor growth inhibition at 2.5 mg/kg, ip administered once every 4th day for 3 weeks; assay type: functional; conditions: 22Rv1, 504 h, read-out: TGI
[21] = biological target: T1, Androgen receptor (Homo sapiens); test: Induction of full length AR degradation in human RWPE-1 cells at 10 uM measured for 24 hrs by Western blot analysis; assay type: cell-based
CWR22R [22] = test: Induction of apoptosis in human 22Rv1 cells assessed as increase in PARP level at 1 uM measured after 48 hrs by Western blot analysis; assay type: functional, cell-based
LNCaP [23] = test: Downregulation of AR-regulated TMPRSS2 protein level in human LNCaP cells measured for 48 hrs in presence of AR agonist, R1881 in charcoal stripped serum by Western blot analysis; assay type: functional, cell-based; conditions: dose 300-1000 nM
[24] = Toxicity in BALB/c nude mouse xenografted with human LNCaP cells assessed as animal weight loss at 2.5 mg/kg, ip administered once every 4th day for 3 weeks; assay type: organism-based; conditions: in vivo, 504 h
[25] = Downregulation of AR-regulated PSA protein level in human LNCaP cells at 300 nM measured for 48 hrs in presence of AR agonist, R1881 in charcoal stripped serum by Western blot analysis relative to control; assay type: functional
[26] = Biodistribution in BALB/c mouse kidney xenografted with human 22Rv1 cells at 2.5 mg/kg, iv measured at 0.5 to 1 hrs; assay type: ADME, organism-based, CWR22R; conditions: in vivo, time 0.5-1 hrs

With CC(C)c1cc(-c2n[nH]c(=O)n2-c2ccc(CN3CCN(CC4CCN(c5ccc(C(=O)N[C@H]6CC[C@H](Oc7ccc(C#N)c(Cl)c7)CC6)nn5)CC4)CC3)cc2)c(O)cc1O the Drug uptake [1] was “Active”, the IC50 (CWR22R [2]) was 26.5 nM and the Activity (LNCaP [3]) was “Active”. The Drug uptake [4] was “Active”, the Drug uptake [5] was “Active” and the Activity [6] was “Non-Toxic”. For the same compound, the Activity (LNCaP [7]) was “Dose-Dependent Effect”, the Activity [8] was “Tde” and the Activity [9] was > 90%. For the same compound, the IC50 (LNCaP [10]) was 171 nM, the Activity (CWR22R [11]) was “Active” and the Activity [12] was 10%. The Drug uptake [13] was “Active”, the Activity [14] was “Non-Toxic” and the Activity (LNCaP [15]) was “Active”. For the same compound, the Drug uptake [16] was “Active”, the Activity (CWR22R [17]) was “Active” and the Activity [18] was “Non-Toxic”. The Activity (LNCaP [19]) was “Active”, the inhibition in vivo at 2.5 mg/kg (CWR22R [20]) was 50% and the Activity [21] was “inactive”. For the same compound, the Activity (CWR22R [22]) was “Active”, the Activity (LNCaP [23]) was “Dose-Dependent Effect” and the Activity [24] was 10%. For the same compound, the Activity [25] was >50% and the Drug uptake [26] was “Active”.
